Data set [1] has as its system T84 human colonic epithelial cells. Kind of data set: Short-circuit current in T84 cell monolayers, identical apical and basolateral solutions. The format is cell-based. The settings on record: for effect on residual afatinib-induced carbachol response in BAPTA-treated cells: 10 μM inhibitor; for effect on residual afatinib-induced carbachol response in BAPTA-treated cells / short-circuit current, TKI alone: 20 μM afatinib; for effect on carbachol and forskolin induced current responses, without and with afatinib pretreatment: 30 μM clotrimazole, 10 μM senicapoc, 30 min prior to 100 μM carbachol then 10 μM forskolin; for effect of higher concentrations on the small residual current: data not shown; for short-circuit current, TKI alone: 40 μM lapatinib, 20 μM gefitinib, before carbachol. On the procedure:
T84 cells (ATCC CCL-248) are cultured in a 1:1 mixture of DMEM/Ham's F-12 medium supplemented with 10% FBS, 100 U/mL penicillin and 100 μg/mL streptomycin. Cells are grown on Snapwell inserts (Costar Corning, Horseheads, NY) at 37° C. in 5% CO2/95% air and used 7-10 days after plating.
T84 cells are mounted in Ussing chambers and bathed in symmetrical HCO3-buffered solution containing (in mM): 120 NaCl, 5 KCl, 1 MgCl2, 1 CaCl2, 10 D-glucose, 5 HEPES and 25 NaHCO3 (pH 7.4). The solutions are aerated with 95% O2/5% CO2 and maintained at 37° C. For measurement of basolateral K^+ conductance, a mucosal-to-serosal K^+ gradient is established using solutions containing K^+ as the major charge-carrying ion. The apical solution contained (in mM): 142.5 K-gluconate, 1.25 CaCl2, 0.40 MgSO4, 0.43 KH2PO4, 0.35 Na2HPO4, 10 HEPES, 5.6 D-glucose, pH 7.4. […] For measurement of apical Cl^− conductance, a basolateral to apical Cl^− gradient is applied. The basolateral solution contained (in mM): 120 NaCl, 1 MgCl2, 1 CaCl2, 10 D-glucose, 5 HEPES and 25 NaHCO3 (pH 7.4). In the apical solution 120 mM NaCl is replaced by 5 mM NaCl and 115 mM Na-gluconate, and the basolateral membrane is permeabilized with 250 μg/ml amphotericin B (Pongkorpsakol P, Pathomthongtaweechai N, Srimanote P, Soodvilai S, Chatsudthipong V, and Muanprasat C. Inhibition of cAMP-activated intestinal chloride secretion by diclofenac: cellular mechanism and potential application in cholera. PLoS Negl Trop Dis. 2014; 8(9):e3119). Short-circuit current is measured using an EVC4000 multichannel voltage clamp (World Precision Instruments, Sarasota, FL). For intestinal short-circuit current measurement, CD1 mice are anesthetized with isoflurane. The ileum is removed, washed with ice-cold Krebs buffer, opened along the mesenteric border, and full-thickness layer is mounted in a micro-Ussing chamber (area 0.7 cm2, World Precision Instruments, Sarasota, FL). Hemichambers are filled with oxygenated Krebs-bicarbonate solution.
The effect of ErbB TKIs lapatinib, gefitinib, and afatinib on Cl^− secretory responses in T84 human colonic epithelial cells is tested. Short-circuit current is measured in T84 cell monolayers with identical solutions bathing the apical and basolateral surfaces.

The target of data set [2] is T1, apical membrane CFTR Cl- channels (Homo sapiens, UniProt P13569).
T1 construct: endogenous in cells; host or cells: T84 (ATCC CCL-248)
T1 sequence (P13569 whole entry): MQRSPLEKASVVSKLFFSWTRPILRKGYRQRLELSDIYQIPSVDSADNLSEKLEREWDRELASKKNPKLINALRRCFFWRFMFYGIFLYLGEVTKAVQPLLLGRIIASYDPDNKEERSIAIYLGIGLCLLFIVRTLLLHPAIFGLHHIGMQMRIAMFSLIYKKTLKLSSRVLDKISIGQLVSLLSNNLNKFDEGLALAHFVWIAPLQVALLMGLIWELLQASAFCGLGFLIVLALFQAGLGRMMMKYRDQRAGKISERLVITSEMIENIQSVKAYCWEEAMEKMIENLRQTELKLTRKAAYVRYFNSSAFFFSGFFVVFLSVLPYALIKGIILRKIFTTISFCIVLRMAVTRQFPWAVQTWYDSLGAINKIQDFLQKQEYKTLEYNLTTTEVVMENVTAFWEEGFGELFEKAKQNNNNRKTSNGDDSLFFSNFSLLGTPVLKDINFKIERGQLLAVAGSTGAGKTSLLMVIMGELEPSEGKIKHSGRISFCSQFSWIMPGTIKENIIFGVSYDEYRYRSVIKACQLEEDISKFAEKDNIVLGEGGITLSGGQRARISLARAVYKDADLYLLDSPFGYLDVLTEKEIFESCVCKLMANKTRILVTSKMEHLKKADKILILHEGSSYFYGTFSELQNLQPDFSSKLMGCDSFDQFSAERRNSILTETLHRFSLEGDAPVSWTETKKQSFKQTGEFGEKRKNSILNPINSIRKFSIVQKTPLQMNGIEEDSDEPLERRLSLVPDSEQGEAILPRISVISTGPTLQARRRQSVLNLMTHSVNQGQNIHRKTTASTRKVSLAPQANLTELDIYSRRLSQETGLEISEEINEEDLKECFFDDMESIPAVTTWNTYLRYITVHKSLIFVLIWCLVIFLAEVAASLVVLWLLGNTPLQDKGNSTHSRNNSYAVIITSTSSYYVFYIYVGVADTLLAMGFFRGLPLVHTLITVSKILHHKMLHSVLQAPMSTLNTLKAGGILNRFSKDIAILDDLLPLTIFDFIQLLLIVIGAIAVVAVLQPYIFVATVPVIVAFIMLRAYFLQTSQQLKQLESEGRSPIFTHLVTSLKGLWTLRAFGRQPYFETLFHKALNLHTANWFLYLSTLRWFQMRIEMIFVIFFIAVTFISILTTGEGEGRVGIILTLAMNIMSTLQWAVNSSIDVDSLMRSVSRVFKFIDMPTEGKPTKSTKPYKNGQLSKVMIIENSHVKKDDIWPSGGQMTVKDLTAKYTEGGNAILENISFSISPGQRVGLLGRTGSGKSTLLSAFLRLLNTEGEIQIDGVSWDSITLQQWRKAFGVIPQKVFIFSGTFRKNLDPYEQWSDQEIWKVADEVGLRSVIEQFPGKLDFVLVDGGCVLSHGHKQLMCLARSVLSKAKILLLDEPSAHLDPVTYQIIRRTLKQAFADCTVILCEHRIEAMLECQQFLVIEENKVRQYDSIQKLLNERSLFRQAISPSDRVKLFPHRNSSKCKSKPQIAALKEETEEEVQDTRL
The data set can be described thus: Apical Cl- conductance: short-circuit current in basolaterally permeabilized T84 cells with Cl- gradient. Format: cell-based. Particulars: basolateral membrane permeabilized, 10 μM BPO-27.

Another data set has as its system Sprague-Dawley rats. Kind of data set: Rat model of afatinib diarrhea (stool water content, intestinal histology). The format is in vivo. Particulars: for inhibition of the increase in stool water content: days 3 and 4; for reduction of the increased stool water content with afatinib: senicapoc 30 mg/kg oral twice daily. On the procedure:
Female Sprague-Dawley rats (age 8-10 weeks) received oral afatinib (60 mg/kg oral) daily for 6 days. […] Rats are placed individually in metabolic cages and given access to water and food. Stool samples are collected for 5 hours. To measure stool water content, the stool samples are dried at 70° C. for 24 hours and water content is calculated as (wet weight−dry weight)/wet weight. Following initial dose-finding studies in mice and rats with several TKIs, using stool water content (from wet and dry weight measurement) as endpoint, a robust, short-term experimental animal model of afatinib diarrhea is established involving daily oral administration of 60 mg/kg afatinib in rats.

In data set [3] the test system is basolateral membrane K+ channel(s). The data set can be described thus: Basolateral K+ conductance: short-circuit current in apically permeabilized T84 cells with K+ gradient. The format is cell-based, human. The settings on record: apical membrane permeabilized.
Procedure: (§1) T84 cells are mounted in Ussing chambers and bathed in symmetrical HCO3-buffered solution containing (in mM): 120 NaCl, 5 KCl, 1 MgCl2, 1 CaCl2, 10 D-glucose, 5 HEPES and 25 NaHCO3 (pH 7.4). The solutions are aerated with 95% O2/5% CO2 and maintained at 37° C. For measurement of basolateral K^+ conductance, a mucosal-to-serosal K^+ gradient is established using solutions containing K^+ as the major charge-carrying ion. The apical solution contained (in mM): 142.5 K-gluconate, 1.25 CaCl2, 0.40 MgSO4, 0.43 KH2PO4, 0.35 Na2HPO4, 10 HEPES, 5.6 D-glucose, pH 7.4. […] Short-circuit current is measured using an EVC4000 multichannel voltage clamp (World Precision Instruments, Sarasota, FL).
To measure basolateral membrane K^+ conductance directly, short-circuit current is measured in T84 cells following permeabilization of the apical membrane with amphotericin B in Cl^− and Na^+ free solutions and an apical-to-basolateral K^+ gradient (FIG. 7A).
Data set [4] addresses epithelial Ca2+-activated K+ channels (Homo sapiens, UniProt O15554). Particulars: reported; cited from earlier work.
The test system of data set [5] is cAMP-activated K+ channels. The data set can be described thus: Inhibition of forskolin-induced short-circuit current in T84 cells (FIG. 11B). Format: cell-based, human. The settings on record: 10 μM forskolin.
Procedure: as §1
[6] abbreviates: 30 μM BAPTA-AM, 100 μM carbachol.
Setting [7] is: afatinib-treated rats, BPO-27 10 mg/kg ip twice daily, clotrimazole 100 mg/kg oral in two divided doses.

This is an account of results in patent US12390473B2, “Methods of treating tyrosine kinase inhibitor-induced diarrhea” (THE REGENTS OF THE UNIVERSITY OF CALIFORNIA, priority 2019, dated 2025).

Some results are limits rather than exact numbers.

Chain of epithelial Ca2+-activated K+ channels (O15554 whole entry): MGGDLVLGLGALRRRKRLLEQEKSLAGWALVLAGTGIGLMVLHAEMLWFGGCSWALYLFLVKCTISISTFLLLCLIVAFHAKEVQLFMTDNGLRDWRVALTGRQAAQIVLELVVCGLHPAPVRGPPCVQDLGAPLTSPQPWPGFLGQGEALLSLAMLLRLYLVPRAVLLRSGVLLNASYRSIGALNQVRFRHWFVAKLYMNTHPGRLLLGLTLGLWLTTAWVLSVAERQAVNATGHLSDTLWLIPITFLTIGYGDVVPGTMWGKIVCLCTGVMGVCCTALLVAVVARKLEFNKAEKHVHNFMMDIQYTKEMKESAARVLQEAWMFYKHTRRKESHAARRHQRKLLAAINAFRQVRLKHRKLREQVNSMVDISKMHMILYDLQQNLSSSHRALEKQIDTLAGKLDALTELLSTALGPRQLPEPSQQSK

As for `CC(=O)OCOC(=O)CN(CC(=O)OCOC(C)=O)c1ccccc1OCCOc1ccccc1N(CC(=O)OCOC(C)=O)CC(=O)OCOC(C)=O` [BAPTA-AM], the “effect on carbachol response” value in data set [1] (setting [6]) was “largely prevents the carbachol response”.
Regarding `Cn1c(=O)c2c(-c3ccccc3)n3c(c2n(C)c1=O)[C@H](c1ccc(Br)o1)Oc1ccc(C(=O)O)cc1-3` [BPO-27], in data set [1] (10 μM BPO-27, 20 μM afatinib, 100 μM carbachol), the “effect on afatinib augmentation of carbachol-induced current” value is listed as “blocks the afatinib augmentation”. Besides, in data set [1] (10 μM BPO-27, 100 μM carbachol), the “effect on carbachol-induced current without afatinib” value is reported as “little effect”. Further, the “effect on residual afatinib-induced carbachol response in BAPTA-treated cells” value in data set [1] (setting [6]) is recorded as “blocked”. Besides, in data set [2], the “effect on afatinib-amplified carbachol response (apical Cl- conductance)” value was “blocked”. Also, in the data set on Sprague-Dawley rats (afatinib-treated rats, BPO-27 10 mg/kg ip twice daily from 1 day after first afatinib dose), the “inhibition of the increase in stool water content” value is approximately 50%. The “reduction of the increased stool water content with afatinib” value in the data set with Sprague-Dawley rats (setting [7]) was “significant reduction”. In the data set on Sprague-Dawley rats (afatinib-treated rats, BPO-27 10 mg/kg ip twice daily, day 5), the “inhibitor effect on stool water content by day 5” value is “reduced inhibitor effect”.
On to `O=C(O)c1ccc(/C=C2\SC(=S)N(c3cccc(C(F)(F)F)c3)C2=O)cc1` [CFTRinh-172], for which, in data set [1] (setting [6]), the “effect on residual afatinib-induced carbachol response in BAPTA-treated cells” value was “blocked”.
With `CCn1c(=O)[nH]c2ccccc21` [EBIO], in data set [1] (EBIO 500 μM and/or afatinib 20 μM, 25 min prior to 100 μM carbachol then 10 μM forskolin), the “effect of pretreatment on carbachol and forskolin current responses” value is “amplifies the carbachol and forskolin current responses”.
With `CN(C)C/C=C/C(=O)Nc1cc2c(Nc3ccc(F)c(Cl)c3)ncnc2cc1O[C@H]1CCOC1` [afatinib], in data set [1] (Homo sapiens, added 25 min prior to carbachol, read-out: EC50 of amplification of carbachol-induced short-circuit current), the EC50 (usually the midpoint of the concentration-response curve) was approximately 5 µM. For the same compound, the “increase in carbachol response (basolateral K+ conductance) after pretreatment” value in data set [3] (20 μM afatinib, 100 μM carbachol) is on record as approximately 2 fold. Further, the intestinal histology result in the data set on Sprague-Dawley rats (rats, 60 mg/kg afatinib oral daily) is “relatively minor pathology up to day 4, but greater epithelial disruption after that”. The compound also gave a stool water content with Sprague-Dawley rats (rats, 60 mg/kg afatinib oral daily, days 4-5, baseline ~60%) of more than 80%. For the same compound, in the data set on Sprague-Dawley rats (rats, 60 mg/kg afatinib oral, day 6), the “intestinal histology (H&E) by day 6” value is “scattered epithelial disruption is seen in jejunum (black arrowheads) and villus atrophy in ileum”. In addition, in the data set on Sprague-Dawley rats (rats, 60 mg/kg afatinib oral, up to day 4), the “intestinal histology (H&E) up to day 4” value is on record as “minor injury up to day 4 with villus blunting in ileum”.
For `Clc1ccccc1C(c1ccccc1)(c1ccccc1)n1ccnc1` [clotrimazole], in data set [1], the “effect on carbachol and forskolin induced current responses, without and with afatinib pretreatment” value was “largely prevents”; the “effect of higher concentrations on the small residual current” value is given as “does not inhibit the residual current”. Besides, in data set [3] (afatinib pretreatment, carbachol), the “effect on afatinib-amplified carbachol response (basolateral K+ conductance)” value is on record as “largely blocked”. In the data set on Sprague-Dawley rats (setting [7]), the “reduction of the increased stool water content with afatinib” value is on record as “significantly reduced”. In addition, the “inhibition of the increase in stool water content” value in the data set on Sprague-Dawley rats (afatinib-treated rats, clotrimazole 100 mg/kg oral in two divided doses) is given as approximately 75%. Further, in data set [4], the “inhibition of epithelial Ca2+-activated K+ channels in patch-clamp studies” value is “fully inhibit”.
For `COc1cc2ncnc(Nc3ccc(F)c(Cl)c3)c2cc1OCCCN1CCOCC1` [gefitinib], the “short-circuit current, TKI alone” value in data set [1] was “do not increase short-circuit current”.
The same measure, in the same setting: the entry for `CS(=O)(=O)CCNCc1ccc(-c2ccc3ncnc(Nc4ccc(OCc5cccc(F)c5)c(Cl)c4)c3c2)o1` [lapatinib] is “do not increase short-circuit current”.
`NC(=O)C(c1ccccc1)(c1ccc(F)cc1)c1ccc(F)cc1` [senicapoc]: in data set [1], the “effect on carbachol and forskolin induced current responses, without and with afatinib pretreatment” value is given as “largely prevents”; the “effect of higher concentrations on the small residual current” value is listed as “does not inhibit the residual current”. For the same compound, the “IC50 for inhibition of cAMP-dependent basolateral K+ conductance” value in data set [5] is on record as “low micromolar”. In addition, the “reduction of the increased stool water content with afatinib” value in the data set on Sprague-Dawley rats (setting [7]) was “Significant, though lesser reduction”.
As to “EGF: Epidermal growth factor (NSDSECPLSHDGYCLHDGVCMYIEALDKYACNCVVGYIGERCQYRDLKWWELR; UniProt P01133 971-1023, looked up)”, the “effect on Cl- secretion in response to carbachol” value in data set [1] (100 ng/ml EGF 25 min prior to 100 μM carbachol) is given as “greatly reduces”.
